Laboratory results: patent US20040147595A1, “Biofilm degrading or sloughing compositions and methods” (priority 2001, published 2004)
pEC50: −log10 of the molar value. “And” between values parts separate entries of the source, which are not always exact repeats. Equal values may be shown once. “Also recorded” adds a separate entry of the source. Read-outs that look alike come from different tables or passages of the source.

Key:
[1] = test system: las quorum sensing system (lasB-gfp(ASV) Plac-lasR); assay: pMHLAS lasB-gfp(ASV) reporter in E. coli MT102; format: cell-based, Escherichia coli; conditions: for induction of the lasB-gfp(ASV) monitor by AHL compounds: E. coli with pMHLAS, AHLs 0 to 1000 nM
Description: (§1) AHL and furanone bioassay. Strains were grown exponentially in LB or ABt medium supplemented with 0.5% glucose at 30° C., shading at 250 rpm. At an optical density of approximately 0.8. the cultures were diluted and split into subcultures in glass culture flasks. AHLs and furanone 56 were added to appropriate concentrations and the cultures were further incubated at 30° C. under vigorous shaking. Culture samples were retrieved at various time intervals and green fluorescence was measured with a fluorometer (model RF-1501, Shimadzu, Tokyo, Japan) set at an excitation wavelength of 475 nm and emission wavelength of 515 nm. Relative fluorescence was calculated as green fluorescence normalized to 1 ml culture divided by the optical density (OD600 nm.
(§2) Initially, the lasB-gfp(ASV) translational fusion (OdDHL sensor) was thoroughly characterized with respect to its sensitivity and specificity. A culture of E. coli hosting the pMHLAS monitor plasmid was diluted and spilt into several subcultures which were then supplemented with AHLs at concentrations ranging from 0 to 1000 nM. […] When the pMHLAS based reporter system was hosted by PAO-JP2. the OdDHL concentration required for half-maximal activation of the lasB-gfp(ASV) fusion was 8 nM (data not shown). In single copy on the chromosome of PAO-JP2, the OdDHL concentration on required for half-maximal activation of lasB expression was approximately 250 nM (FIG. 2b). Green fluorescent cells were visible by epifluorescence microscopy at a minimal OdDHL concentration of 50 nM (FIG. 2c).
Effect of the furanone in a heterologous background. The direct regulation exerted by the las regulon on lasB expression is well described by numerous studies (Gambello & Iglewski, 1991: Pearson et al., 1994; Pearson et al., 1997). Regulatory complexity is added by the observation that the las quorum sensing circuit itself is subject to global regulators (Albus et al., 1997; Whiteley et al., 2000) and that lasB expression is also controlled by other regulators than LasR (Brumlik & Storey, 1992; Pesci et al., 1999; Schictman et al., 1995). It was, therefore, important to rule out that QSI effect, observed is not caused by furanone interaction with high levels of control. Since there is no AHL-based quorum sensing system present in Escherichia coli (Williams et al., 2000), this bacterium provides an unbiased and well-defined genetic background for studying the direct effects of the furanone on the P. aeruginosa las quorum sensing system. We repeated the above-described experiments using E. coli MT102 as a heterologous host for the reporter system. […] This is likely to be attributed to the increased copy number of the reporter plasmid.

P. aeruginosa = conditions: cited from earlier work
[2] = test system: OHHL induced LuxR dependent expression of GFP; assay: Quantitative furanone inhibition of the LuxR-PluxI-gfp(ASV) quorum sensor in E. coli MT102 (pJBA89); format: cell-based, Escherichia coli; conditions: gradient of furanone concentration lowering RFU to 40% versus OHHL concentration (5-100 nM)
From the text: To analyse the AHL antagonist activity of the halogenated furanones we tested the compounds for their ability to inhibit 3oxo-C6-HSL (OHHL) induced LuxR dependent expression of green fluorescent protein (GFP) from a Pgfp(ASV) fusion in the AHL monitor strain E. coli MT102 harbouring pJBA89 (Andersen et al., 2001).
The medium used is minimal ABT containing 0.5% glucose and 0.5% Casamino Acids. In growing cultures of the AHL monitor strain E. coli Mt102 (pJBA89) encoding […] and a P-gfp(ASV) fusion, GFP(ASV) is produced immediately upon OHHL addition specifically from the LuxR controlled P-gfp(ASV) fusion gene. The sensitivity is high (responsive to as little as 3 nm OHHL) and due to the instability built into the GFP (ASV) variant there is no background production of green fluoroscence (Andersen et al., 2001). GFP expression from the AHL monitor strain E. coli MT102 (pJBA89) and the control strain MT102 harbouring the lacl^q, Plas-gfp(ASV) IPTG inducible expression system pMH197 was quantified in the following way. Overnight cultures were diluted four fold in fresh medium and incubated for one hour at 30° C. while OHHL and furanone compounds in the required concentrations were mixed in the wells of microtiter dishes. […] When absolute values were required, green fluoroscence was measured on a fluorometer (model RF-1501; Shimadzu, Tokyo, Japan) act at an excitation wavelength of 475 nm and emission detection at 515 nm. To establish a correlation between the colour code of the ARGUS-50 captured images and green fluorescence, both colour and relative fluorescence units (RFU), were determined for a dilution series of an E. coli MT102 (pJBA89) culture which had been incubated with […]. […]
From the second plot, the furanone concentration reducing the relative activity to 40% (ID60) is determined for each OHHL concentration. […]
To enable easy comparison of the strength of the furanones, an inhibition index (IIX40) is calculated for each furanone compound. […]

[3] = test system: lasB-gfp(ASV) reporter in P. aeruginosa PAO-JP2 biofilm; assay: OdDHL-mediated signalling in PAO-JP2 flowcell biofilm, lasB-gfp(ASV) reporter, CSLM; format: cell-based, Pseudomonas aeruginosa
Description: P. aeruginosa biofilms. Biofilms were grown at 30° C. in three-dimensional flow cells (Christensen et al., 1999) with individual channel dimensions of 0.3×4×40 mm supplied With ABt minimal medium supplemented with 2% LB. The flow system was assembled and prepared as described by Christensen et al. (1999). The substratum consisted of a microscope glass coverslip (Knittel 24×50 mm st1, Knittel Glaser, Braunschweig, Germany). Cultures for inoculation of the flow channels were prepared in the following way: P. aeruginosa strains were streaked on LB plates with the appropriate antibiotics and incubated for 24 h at 37° C. From each plate a single colony was used for inoculation of 10 ml ABt with 10% LB. The cultures were grown at, 30° C. for 18 h before they were diluted to an OD600 nm of 0.1 in sterile 0.9% NaCl and used for inoculation of the flow channels. Medium flow was kept at a constant rate of 3 mL/h, equivalent to a mean flow velocity of 0.7 mm/s, using a Watson-Marlow 205S peristaltic pump (Watson-Marlow, Falmouth, England). Biofilms were grown for 24 hours before being shifted to media containing AHL and furanone.
Scanning confocal laser microscopy (SCLM). Microscopic inspection and image acquisition were performed an a scanning confocal laser microscope (model TCS4D, Leica Lasertechnik GmbH, Heldelberg, Germany) equipped with a 63×/1.32-0.6 oil objective. The microscope was equipped with a motorized and programmable xy-stage, which was used for monitoring single colonies during the biofilm experiments. At the beginning of each online experiment, the microscope was programmed to track single randomly selected microcolonies; the sensitivity of photo multipliers and the laser intensity were adjusted and thereafter kept constant through out the duration of the experiments. Image scanning was carried out using the 488 nm and 568 nm lines of an Ar/Kr laser for detection of Gfp and Rfp, respectively. Visualization of captured images was performed using the IMARIS software package (Bitplane AG, Zúrich, Switzerland) running on a Silicon Graphics Indigo 2 workstation (Silicon Graphics, Mountain View, Calif. USA).
Inhibition of AHL-mediated signalling in P. aeruginosa biofilms. The lasB-gfp(ASV) reported was integrated into the chromosome of PAO-JP2 to ensure stable segregation and a constant gene dosage of the reported system. The strain was growth in flowcells for 24 hours in ABt-LB medium and a 10-15 μm thick biofilm developed. The media flow was subsequently switched to ABt-LB medium containing the appropriate AHL and furanone concentrations. The development of green fluorescence was monitored online by CSLM for 8 hours.

lasB promotor = conditions: Gray et al., 1994; cited from earlier work
elastase = assay: Virulence factor production: elastase (proteolytic) activity of PAO-JP2 supernatant; format: cell-based, Pseudomonas aeruginosa
Description: Measurements of virulence factors. PAO-JP2 was grown in LB medium at 37° C. and shaking at 250 rpm to an OD600 nm of 1.0. The culture was divided into seven subcultures, which were added 0, 70, or 1000 nm OdDHL and 0. 3. or 5 μg/ml furanone 58. The cultures were grown for an additional 4 hours at 37° C. The proteolytic activity was measured as described by Ayora & G{overscore (o)}tz (1994). Azocasein (250 μl 2%, Sigma, St. Louis, Mo.) in 50 mM Tris/HCl and steril-filtered (Ø 0.2 μm) supernatant (150 μl) were incubated for 4 h at […] After precipitation of undigested substrate with trichloroacetic acid (1.2 ml 10%) for 15 minutes, followed by 10 minutes centrifugation at 1000 rpm, NaOH (1.4 ml 1 M) were added to the supernatant. The relative protease activity was measured as the absorbance at 440 nm (OD440 nm) of the supernatant divided by the optical density of the culture (OD600 nm ).

chitinase = assay: Virulence factor production: chitinase activity of PAO-JP2 supernatant; format: cell-based, Pseudomonas aeruginosa
Description: The chitinase activity assay was performed as described by the assay manufacturer (Loewe Biochemica, Sauerlach, Germany). Supernatant (560 μl) of cultures prepared as described for the elastase assay was mixed with carboxymethyl-chitin-remazol brilliant violet (200 μl) and sodium phosphate buffer (40 μl, 1 M, pH 7.5). The reaction mixture was incubated for 18 h at 40° C. in a waterbath. The reaction was stopped by addition of HCl (200 μl, 2 N) and kept for 15 min on ice. After centrifugation (10 min at 15000 rpm), the absorbance (OD550 nm) of the supernatant was measured. The relative chitinase activity was calculated as OD550 nm/OD600 nm normalized to 1 ml supernatant.

lasB promoter = conditions: Pearson et al (1995), pKDT17 in PAO-R1; read-out: OdDHL required for half-maximal activation of a similar construct; cited from earlier work
[4] = test system: las quorum sensing system (lasB-gfp(ASV) expression); assay: AHL and furanone bioassay, PlasB-gfp(ASV) Plac-lasR reporter in planktonic PAO-JP2; format: cell-based, Pseudomonas aeruginosa
Description: as §1, §2
Noteworthy, the inhibitory effect of furanone 56 was relieved at increased concentrations of OdDHL.

CCCCCC(=O)CC(=O)N[C@H]1CCOC1=O [OOHL, N-[3-oxo-octanoyl]-L-homoserine lactone]
induction of the lasB-gfp(ASV) monitor by AHL compounds [1]: less efficient

NC[C@H]1O[C@H](O[C@H]2[C@H](O)[C@@H](O[C@H]3O[C@H](CO)[C@@H](O)[C@H](N)[C@H]3O)[C@H](N)C[C@@H]2N)[C@H](N)C[C@@H]1O [tobramycin]
resistance in the biofilm form compared to the planktonic cells (P. aeruginosa): 50,000 times

CCCCCCCC(=O)CC(=O)N[C@H]1CCOC1=O [ODHL, N-[3-oxo-decanoyl]-L-homoserine lactone]
induction of the lasB-gfp(ASV) monitor by AHL compounds [1]: activated lasB-expression albelt at a lower level; also recorded: less efficient

CCCCC1=C(Br)/C(=C/Br)OC1=O [Compound 2]
inhibition index (IIX40) [2]: 0.75 mole of furanone per mmole of

CCCCCCCCCC(=O)CC(=O)N[C@H]1CCOC1=O [OdDHL, N-[3-oxo-dodecanoyl]-L-homoserine lactone]
lowest OdDHL concentration inducing lasB promoter activity in PAO-JP2 biofilms [3]: 20 nM
expression of the lasB-gfp(ASV) reporter fusion in biofilm ([3]; 40 nm OdDHL): induced and visible in the single cells within four hours
induction of the promotor in response to OdDHL addition (lasB promotor): 63 fold
induction of the lasB-gfp(ASV) monitor by AHL compounds [1]: most efficient inducer
increased responsiveness to OdDHL of the E. coli strain harboring the lasB reporter ([1]; compared with the PAO-JP2 reporter): approx. 10 fold
elastase activity (elastase; PAO-JP2, 70 nm OdDHL): induced
elastase activity in furanone-treated culture (elastase; addition of 1 μM OdDHL): entirely restored
chitinase activity (chitinase; PAO-JP2, 70 nm OdDHL): induced
chitinase activity in furanone-treated culture (chitinase; addition of 1 μM OdDHL): entirely restored
pEC50 (lasB promoter): 6.00
minimal OdDHL concentration at which green fluorescent cells were visible by epifluorescence microscopy ([4]; mini-Tn5 reporter in PAO-JP2): 50 nM
pEC50 ([4]; pMHLAS based (plasmid) reporter hosted by PAO-JP2, data not shown, read-out: OdDHL concentration required for half-maximal activation of the lasB-gfp(ASV) fusion): 8.10
pEC50 ([4]; reporter in single copy on the chromosome of PAO-JP2, read-out: OdDHL concentration required for half-maximal activation of lasB expression): ~6.60 and 6.60
lowest OdDHL concentration detected by the reporter ([4]; single chromosomal copy, data not shown): 20 nM
